Values of other authors in patent publication US20260265214A1, “NOVEL DERIVATIVES OF GLYCEROL” (SYMRISE AG, priority 2023, published 2026).

Details: in 28 days

- readily biodegradable: 85%
Structure (SMILES): CCCCCC1C(=O)CCC1CC(=O)OC (stereo not shown) [methyl dihydrojasmonate, methyl 2-(3′-oxo-2′-pentylcyclopentyl)acetate]
